# pIC50: −log10 of the molar value.
# Tests used:
# [1] = test system: Staphylococcus aureus; experiment: Antibacterial activity against TMP-resistant Staphylococcus aureus BHKS 723 incubated for 24 hrs by CLSI based broth microdilution assay; assay type: functional
# [2] = Cytotoxicity against HEK293 cells assessed as inhibition rate of cell growth at 100 uM incubated for 24 hrs by CCK8 assay relative to control; assay type: toxicity, cell-based; settings: human
# [3] = test system: Staphylococcus aureus; experiment: Antibacterial activity against TMP-resistant Staphylococcus aureus BHKS 227 incubated for 24 hrs by CLSI based broth microdilution assay; assay type: functional
# [4] = test system: Staphylococcus aureus; experiment: Antibacterial activity against Staphylococcus aureus USA 300 incubated for 24 hrs by CLSI based broth microdilution assay; assay type: functional
# [5] = target: Dihydrofolate reductase (Staphylococcus aureus, UniProt P0A017); experiment: Inhibition of Staphylococcus aureus DHFR expressed in Escherichia coli BL21 (DE3) using DHF as substrate preincubated for 10 mins followed by substrate addition measured for 10 mins in presence of NADPH by spectrophotometry
# [6] = Cytotoxicity against human NCM460 cells assessed as inhibition rate of cell growth at 100 uM incubated for 24 hrs by CCK8 assay relative to control; assay type: toxicity, cell-based
# [7] = test system: Staphylococcus aureus; experiment: Antibacterial activity against TMP-resistant Staphylococcus aureus BHKS 721 incubated for 24 hrs by CLSI based broth microdilution assay; assay type: functional
# [8] = test system: Dihydrofolate reductase (Staphylococcus aureus); settings: dose 100.0 nM
# [9] = test system: Staphylococcus aureus; experiment: Antibacterial activity against Staphylococcus aureus ATCC 25923 incubated for 24 hrs by CLSI based broth microdilution assay; assay type: functional
# Chain of Dihydrofolate reductase (P0A017 whole entry): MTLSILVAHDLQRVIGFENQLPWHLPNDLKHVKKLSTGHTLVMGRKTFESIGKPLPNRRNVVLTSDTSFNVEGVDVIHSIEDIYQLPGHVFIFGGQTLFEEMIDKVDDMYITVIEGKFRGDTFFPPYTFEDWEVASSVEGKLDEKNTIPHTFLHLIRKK
SMILES,MIC [1] [µg/mL],"inhibition at 24 h, 100 µM [2] [%]",MIC [3] [µg/mL],MIC [4] [µg/mL],pIC50 [5],"inhibition at 24 h, 100 µM [6] [%]",MIC [7] [µg/mL],inhibition [8] [%],MIC [9] [µg/mL]
COc1cc(C(C)C)c(Oc2cnc(N)nc2N)cc1-c1ccc2ccccc2c1,> 32,13.5,1,0.25,6.83,67.6,> 32,80.8,0.5
CCc1cc(Oc2cnc(N)nc2N)c(C(C)C)cc1OC,16,38.8,2,0.125,7.61,8.5,16,,0.25
COc1cc(C(C)C)c(Oc2cnc(N)nc2N)cc1-c1cccc(C(F)(F)F)c1,16,51.5,4,1,6.62,74.6,16,82.9,1
CCCOc1cc(C(C)C)c(Oc2cnc(N)nc2N)cc1I,> 32,47.4,0.5,0.016,7.35,66.7,> 32,43.8,0.016
COc1cc(C(C)C)c(Oc2cnc(N)nc2N)cc1-c1ccc(OC(F)(F)F)cc1,8,43.5,1,0.25,7.72,63.6,8,> 100,0.25
COc1cc(C(C)C)c(Oc2cnc(N)nc2N)cc1-c1ccc(C)cc1,16,2.04,2,0.5,7.41,55.5,16,9.88,0.5
COc1ccc(Oc2cnc(N)nc2N)cc1-c1ccc(C(F)(F)F)cc1,4,42.3,4,0.016,8.08,68.3,4,> 100,0.031
COc1cc(C(C)C)c(Oc2cnc(N)nc2N)cc1-c1ccc(C(=O)O)cc1,2,29.9,< 0.25,0.063,8.35,6.53,2,45.1,0.063
COc1cc(C(C)C)c(Oc2cnc(N)nc2N)cc1CC(C)C,16,57.8,4,0.5,7.62,67.4,16,> 100,0.5
CCCCCOc1cc(C(C)C)c(Oc2cnc(N)nc2N)cc1I,4,64.9,2,0.125,8.08,41.5,4,45.8,0.125
COc1cc(C(C)C)c(Oc2cnc(N)nc2N)cc1-c1ccc(Cl)c(C(F)(F)F)c1,4,41,2,0.5,6.85,37.8,4,67.4,0.5
COc1ccc(Oc2cnc(N)nc2N)cc1-c1ccc(OC(F)(F)F)cc1,4,39.4,2,0.002,7.80,69.9,4,51.1,0.002
COc1cc(C(C)C)c(Oc2cnc(N)nc2N)cc1-c1ccc(C(F)(F)F)cc1,16,27.4,2,0.5,7.22,65,16,68.1,0.5
CC(C)c1cc(OCC2CCCC2)c(I)cc1Oc1cnc(N)nc1N,4,64,2,0.125,7.99,35.2,8,76.4,0.125
COc1cc(C(C)C)c(Oc2cnc(N)nc2N)cc1-c1ccc2c(c1)OCO2,16,26.8,2,0.25,7.46,62.3,32,> 100,0.5
CC(C)c1cc(OCCc2ccccc2)c(I)cc1Oc1cnc(N)nc1N,4,62,2,0.125,,33.7,4,76.4,0.125
CCCCCCOc1cc(C(C)C)c(Oc2cnc(N)nc2N)cc1I,4,41.5,8,1,,66,8,42.9,1
COc1cc(C(C)C)c(Oc2cnc(N)nc2N)cc1-c1cc(C)cc(C)c1,16,29.7,2,0.5,,68.8,8,64.6,0.5
CC(C)c1cc(OCC2CCCCC2)c(I)cc1Oc1cnc(N)nc1N,> 32,36.7,> 32,0.5,,65,32,59.8,0.5
CCCCOc1cc(C(C)C)c(Oc2cnc(N)nc2N)cc1-c1cc(Cl)cc(Cl)c1,8,43,8,1,,42.5,8,75,2
COc1cc(C(C)C)c(Oc2cnc(N)nc2N)cc1-c1ccc(O)cc1,8,22.9,0.5,0.063,,53.1,1,72.3,0.125
COc1cc(C(C)C)c(Oc2cnc(N)nc2N)cc1-c1ccccc1Cl,32,37.8,16,4,,29,32,74.3,4
COc1cc(OC)cc(-c2cc(Oc3cnc(N)nc3N)c(C(C)C)cc2OC)c1,32,29.7,8,2,,66.8,32,40.5,2

# Reference: ChEMBL document CHEMBL5528082 (J Med Chem, 2024)
